Test results: the NIST ThermoML archive (doi:10.1016/j.tca.2016.07.019)
± gives the expanded uncertainty stated by the source.

Assay: wn = mass fraction of the nth substance listed
Settings: 100 kPa, Liquid

O=C([O-])[C@@H]1CCCN1.[K+] [potassium L-prolinate] + O
mass density [kg/m3]
Settings | 293.15 K | 303.15 K | 313.15 K | 323.15 K
w1 = 0.01 | 1007.1 ± 2.3 | 1004.3 ± 2.4 | 1001.6 ± 2.5 | 997.9 ± 2.6
w1 = 0.04 | 1023.4 ± 2.3 | 1019.6 ± 2.4 | 1016.1 ± 2.5 | 1009.5 ± 2.7
w1 = 0.1 | 1047.2 ± 2.4 | 1042.8 ± 2.5 | 1037.9 ± 2.6 | 1026.7 ± 2.8
